Common to all, as to assay type: biochemical
Holding throughout (parameters): key: Good response: Constructs with very clear and robust spectra separation; Poor response: those with noticeable but small spectra separation; No response: those having no spectra separation

Assay [1] has as its target T1, Thermus aquaticus T-Rex FRET fusion, initial construct #4, Rex(78-211)-Rex(78-189)-cpmEGFP(145/146)-Rex(190-211)-mKOk, SEQ ID NO: 164 (Thermus aquaticus, UniProt Q9X2V5, INS189[…]).
T1 construct: His-tag purified from E. coli
As to the kind of experiment: FRET response (emission spectra) of purified initial construct #4 in absence or presence of 40 uM NADH. On the procedure:
(§1) 16 initial FRET constructs (See Table 3) were constructed using expression vector pET28c with a T7 promoter and lac operator and expressed in E. coli. Cells were collected and lysed using a commercially-available lysis buffer. Proteins of interest were isolated from the lysates using Ni-NTA magnetic beads. Eluted proteins were subjected to buffer exchange and final protein concentrating. To test performance of the initial FRET constructs, their emission spectra was recorded on a plate reader in absence or presence of 40 uM NADH. Resulting emission spectra with or without the ligand were normalized and overlaid for each construct. Constructs with very clear and robust spectra separation were labeled as having “good response”, those with noticeable but small spectra separation were labeled as having “poor response”, and finally those having no spectra separation were labeled as having “no response”.

The target in assay [2] is T2, Thermus aquaticus T-Rex FRET fusion, initial construct #5, mKOk-Rex(78-189)-cpmEGFP(173/174)-Rex(190-211)-Rex(78-211), SEQ ID NO: 165 (Thermus aquaticus, UniProt Q9X2V5, INS189[…]).
T2 construct: His-tag purified from E. coli
As to the kind of experiment: FRET response (emission spectra) of purified initial construct #5 in absence or presence of 40 uM NADH. The method, then:
as §1

For assay [3], the target named is Thermus aquaticus T-Rex FRET fusion, initial construct #14, Rex(A)-mEGFP-Rex(B)-mKOk, SEQ ID NO: 174 (Thermus aquaticus, UniProt Q9X2V5, E116G/F189I/K117M/K204T/K47E/R46D/R58D/S30A/Y98W). Kind of assay: FRET response (emission spectra) of purified initial construct #14 in absence or presence of 40 uM NADH. The method, then: as §1

1 compound from patent US12338484B2, “FRET biosensor for detecting and reporting NAD+/NADH ratio changes” (Sartorius BioAnalytical Instruments, Inc., priority 2022, dated 2025) can be followed below.

For the compound `NC(=O)C1=CN([C@@H]2O[C@H](COP(=O)(O)OP(=O)(O)OC[C@H]3O[C@@H](n4cnc5c(N)ncnc54)[C@H](O)[C@@H]3O)[C@@H](O)[C@H]2O)C=CC1` [NADH], the “FRET response to NADH” value in assay [1] is listed as “No response”; in assay [2], “No response”; in assay [3], “Good response”.
